Assay results published in US8357673B2, “4-arylazo-3,5-diamino-pyrazole compounds and use thereof” (Univerzita Palackeho V Olomouci, priority 2004, dated 2013).
Read-outs that look alike come from different tables or passages of the source.

Columns and labels:
CDK7/cyclin H = CDK7/cyclin H (Homo sapiens, UniProt P50613); assay: Kinase selectivity panel; type: biochemical; settings: in the presence of 10 μM compound
PKBα = PKBα (Homo sapiens, UniProt P31749); assay: Kinase selectivity panel; type: biochemical; settings: in the presence of 10 μM compound
CK2 = CK2 (Homo sapiens, UniProt P68400); assay: Kinase selectivity panel; type: biochemical; settings: in the presence of 10 μM compound
c-Abl = c-Abl (Homo sapiens, UniProt P00519); assay: Kinase selectivity panel; type: biochemical; settings: in the presence of 10 μM compound
CDK1/cyclin B = molecular target: T1, CDK1/cyclin B (Homo sapiens, UniProt P06493); assay: CDK1/cyclin B kinase inhibition assay (histone H1, [γ-33P]ATP); type: biochemical; settings: for IC50: averaged from triplicates, 15 μM ATP
T1 construct: made in house; host or cells: Sf9 insect cells (baculovirus co-infection)
Procedure: (§1) CDK1/cyclin B and CDK2/cyclin E kinases were produced in Sf9 insect cells coinfected with appropriate baculoviral constructs. The cells were harvested 70 h post infection, incubated in lysis buffer (50 mM Tris pH 7.4, 150 mM NaCl, 5 mM EDTA, 20 mM NaF, 1% Tween 20, 1 mM DTT, 0.1 mM PMSF, 0.5 μg/ml leupeptine, 1 μg/ml aprotonine) for 30 min on ice and the soluble fraction was recovered by centrifugation at 20.000 g for 10 min. The enzymes were purified on NiNTA column (Qiagen), stored at 4° C. and used within a week. To carry out the enzyme inhibition assays under linear conditions, the final point test system for kinase activity measurement was used. Kinase was added to reaction mixture in such a way as to obtain linear activity with respect to the concentration of enzyme and with respect to time. For determination of kinase inhibition the reaction mixture contained 1 mg/ml histone H1 (type III-S, Sigma) in the presence of 15 μM ATP, 0.05 μCi [γ-^33P]ATP and the tested compound in a final volume of 10 μl; all in reaction buffer (50 mM HEPES, 10 mM MgCl2, 5 mM EGTA, 10 mM 2-glycerolphosphate, 1 mM NaF, 1 mM DTT, pH 7.4). After 20 min incubation, the reactions were stopped by the addition of 5 μl of a 3% H3PO4, aliquots were spotted on P-81 phosphocellulose (Whatman, USA) that was subsequently washed 3× with 5% H3PO4 and finally air dried. The measurements of kinase inhibition employed digital image analyzer BAS-1800 (Fujifilm, Japan). Kinase activity was usually expressed as a percentage of maximum activity. […] For the purpose of kinetic analysis, the activity was expressed as arbitrary units (AU) of digital image analyzer signal.

MAPK1 [1] = assay: Kinase selectivity panel; type: biochemical, human; settings: in the presence of 10 μM compound
p70S6K = p70S6K (Homo sapiens, UniProt P23443); assay: Kinase selectivity panel; type: biochemical
GSK3β = GSK3β (Homo sapiens, UniProt P49841); assay: Kinase selectivity panel; type: biochemical; settings: in the presence of 10 μM compound
CDK2/cyclin E = molecular target: T2, CDK2/cyclin E (Homo sapiens, UniProt P24941); assay: CDK2/cyclin E kinase inhibition assay (histone H1, [γ-33P]ATP); type: biochemical; settings: for IC50: averaged from triplicates, 15 μM ATP
T2 construct: made in house; host or cells: Sf9 insect cells (baculovirus co-infection)
Procedure: as §1

SAPK2α = SAPK2α (Homo sapiens, UniProt Q16539); assay: Kinase selectivity panel; type: biochemical; settings: in the presence of 10 μM compound
[2] = test system: poly(ADP-ribose)polymerase (PARP) cleavage fragment; assay: PARP cleavage by western blot (induction of apoptosis); type: cell-based, human; settings: K562 cells; FIG. 4 legend: MCF7 cells, 72 h
Procedure: For direct immunoblotting, total cellular protein lysates were prepared by harvesting treated cells in Laemmli sample buffer. […] The probing with anti-PARP monoclonal antibody (clone C-2-10) diluted 1:1000 lasted for 2 h at 22° C. After washing three times in PBS-T, the membrane was incubated with a 1:1000 dilution of peroxidase conjugated rabbit antimouse immunoglobulin. After another three washes in PBS-T, peroxidase activity was detected by ECL chemiluminiscence reagents (Amersham) according to the manufacturer's instructions. After a longer incubation period (48-72 h) the cells started to die, with the some morphological features typical for apoptosis. […] The induction of apoptosis was therefore verified by the detection of a poly(ADP-ribose)polymerase (PARP) cleavage fragment. PARP is specifically cleaved as a result of activation of upstream proapoptotic caspases into 89 kDa and 27 kDa peptides.

CHK1 = CHK1 (Homo sapiens, UniProt O14757); assay: Kinase selectivity panel; type: biochemical; settings: in the presence of 10 μM compound
PKA = PKA (Homo sapiens, UniProt P17612); settings: in the presence of 10 μM compound
[3] = In vitro cytotoxicity, Calcein AM, 72 h; type: cell-based, human; settings: human, at 100 μM
Procedure: (§2) Tested drugs were added to the cell cultures in six different concentration and kept at 37° C. and 5% CO2 for three days.
(§3) The cells, cultured in DMEM (supplemented with 10% fetal calf serum, 4 mM glutamine, 100 IU/ml penicillin, 100 μg/ml streptomycin) in a humidified CO2 incubator at 37° C., were redistributed into 96-well microtitre plates (10.000 cells per well). After 12 h preincubation, tested compounds in six-fold dilutions were added. Treatment of cells with the tested compounds (in the 1-100 μM range) lasted for 72 h.

K562 cell line = assay: Cell cycle analysis by flow cytometry; type: cell-based, human
Procedure: Taxol (1 μM) treated and control cells were harvested and analyzed simultaneously.
The antiproliferative activity of 4-arylazo-3,5-diaminopyrazoles was subsequently verified by flow cytometry with subconfluent and asynchronously growing K562 cell line. […] The cell cycle block in G2/M was not dominant.
After a longer incubation period (48-72 h) the cells started to die, with the some morphological features typical for apoptosis. […] The induction of apoptosis was therefore verified by the detection of a poly(ADP-ribose)polymerase (PARP) cleavage fragment. PARP is specifically cleaved as a result of activation of upstream proapoptotic caspases into 89 kDa and 27 kDa peptides.

[4] = test system: K562 (human chronic myeloblastic leukemia); assay: In vitro cytotoxicity, Calcein AM, 72 h; type: cell-based; settings: 72 h; for IC50: Calcein AM, triplicates, read-out: IC50 (μM) K562
Procedure: as §2, §3

[5] = test system: MCF7 (human breast adenocarcinoma); assay: In vitro cytotoxicity, Calcein AM, 72 h; type: cell-based; settings: 72 h; for IC50: Calcein AM, triplicates, read-out: IC50 (μM) MCF7
Procedure: as §2, §3

[6] = test system: HOS (human osteogenic sarcoma); assay: In vitro cytotoxicity, Calcein AM, 72 h; type: cell-based; settings: for IC50: Calcein AM, triplicates, read-out: IC50 (μM) HOS
Procedure: as §2, §3

[7] = test system: G 361 (human malignant melanoma); assay: In vitro cytotoxicity, Calcein AM, 72 h; type: cell-based; settings: 72 h; for IC50: Calcein AM, triplicates, read-out: IC50 (μM) G361
Procedure: as §2, §3

CDK1 and CDK2 = assay: CDK inhibition, for CDK1 and CDK2 together; type: biochemical
Procedure: as §1, with “After 20 min incubation, the reactions were stopped by the addition of 5 μl of a 3% H3PO4, aliquots were spotted on P-81 phosphocellulose (Whatman, USA) that was subsequently washed 3× with 5% H3PO4 and finally air dried. The measurements of kinase inhibition employed digital image analyzer BAS-1800 (Fujifilm, Japan).” left out

in vitro = type: cell-based; settings: human
Procedure: The following cell lines were used: HELA (human cervical carcinoma), MCF7 (human breast adenocarcinoma), NIH 3T3 (mouse fibroblasts), HOS (human osteogenic sarcoma), HL 60 (human promyelocytic leukemia), G 361 (human malignant melanoma), K562 (human chronic myeloblastic leukemia), CEM (human lymphoblastoid leukaemia). Tested drugs were added to the cell cultures in six different concentration and kept at 37° C. and 5% CO2 for three days.
as §3, with “h. At the end of this period, the cells were fed for 1 h with Calcein AM and the fluorescence of the live cells was measured at 485 nm/538 nm (ex/em) with a Fluoroskan Ascent (Labsystems, Finland).” for “h.”

MAPK1 [8] = settings: Knockaert et al 2000, Cohen 2003; cited from earlier work
CDK7 = CDK7 (Homo sapiens, UniProt P50613); settings: Knockaert et al 2000, Cohen 2003; cited from earlier work
[9] = in the presence of 10 μM compound
[10] = G 361 cells (human malignant melanoma), 72 h, read-out: % of viable cells G361
[11] = HOS cells (human osteogenic sarcoma), read-out: % of viable cells HOS
[12] = K562 cells (human chronic myeloblastic leukemia), 72 h, read-out: % of viable cells K562
[13] = MCF7 cells (human breast adenocarcinoma), 72 h, read-out: % of viable cells MCF7

T1 sequence (P06493 whole entry): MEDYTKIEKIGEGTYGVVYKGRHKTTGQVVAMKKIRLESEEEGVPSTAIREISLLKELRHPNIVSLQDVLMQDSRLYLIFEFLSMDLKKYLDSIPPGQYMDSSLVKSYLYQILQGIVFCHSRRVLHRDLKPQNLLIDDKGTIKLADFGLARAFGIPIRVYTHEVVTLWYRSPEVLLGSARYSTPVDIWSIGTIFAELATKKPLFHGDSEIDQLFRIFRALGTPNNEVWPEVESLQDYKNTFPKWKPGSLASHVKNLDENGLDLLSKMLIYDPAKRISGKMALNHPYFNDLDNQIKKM
T1 sequence (P14635 whole entry partner): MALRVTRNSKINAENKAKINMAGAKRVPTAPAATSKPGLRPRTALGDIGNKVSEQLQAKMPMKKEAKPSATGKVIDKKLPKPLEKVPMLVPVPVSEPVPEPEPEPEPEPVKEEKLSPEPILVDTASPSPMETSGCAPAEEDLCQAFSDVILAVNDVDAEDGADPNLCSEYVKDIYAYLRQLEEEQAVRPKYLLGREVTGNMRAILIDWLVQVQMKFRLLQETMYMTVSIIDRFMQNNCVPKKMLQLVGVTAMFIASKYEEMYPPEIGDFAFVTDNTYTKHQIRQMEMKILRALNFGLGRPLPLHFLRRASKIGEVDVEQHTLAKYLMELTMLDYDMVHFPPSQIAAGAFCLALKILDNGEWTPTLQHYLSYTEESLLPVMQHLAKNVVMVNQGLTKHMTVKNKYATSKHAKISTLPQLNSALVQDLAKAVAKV
Chain of p70S6K (P23443 whole entry): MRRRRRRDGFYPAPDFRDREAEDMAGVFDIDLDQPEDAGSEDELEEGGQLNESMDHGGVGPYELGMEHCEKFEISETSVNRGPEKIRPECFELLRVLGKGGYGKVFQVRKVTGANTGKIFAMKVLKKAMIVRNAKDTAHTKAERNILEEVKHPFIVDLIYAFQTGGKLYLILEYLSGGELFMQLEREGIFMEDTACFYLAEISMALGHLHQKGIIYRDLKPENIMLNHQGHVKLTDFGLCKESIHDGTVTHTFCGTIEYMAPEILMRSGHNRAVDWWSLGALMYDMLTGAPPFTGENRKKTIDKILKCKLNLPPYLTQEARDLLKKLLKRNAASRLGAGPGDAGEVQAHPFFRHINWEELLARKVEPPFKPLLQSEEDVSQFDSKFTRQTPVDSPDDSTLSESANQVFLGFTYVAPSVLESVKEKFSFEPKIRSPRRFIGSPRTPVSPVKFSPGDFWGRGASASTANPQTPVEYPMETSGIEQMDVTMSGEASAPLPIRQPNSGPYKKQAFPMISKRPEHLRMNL
Chain of CK2 (P68400 whole entry): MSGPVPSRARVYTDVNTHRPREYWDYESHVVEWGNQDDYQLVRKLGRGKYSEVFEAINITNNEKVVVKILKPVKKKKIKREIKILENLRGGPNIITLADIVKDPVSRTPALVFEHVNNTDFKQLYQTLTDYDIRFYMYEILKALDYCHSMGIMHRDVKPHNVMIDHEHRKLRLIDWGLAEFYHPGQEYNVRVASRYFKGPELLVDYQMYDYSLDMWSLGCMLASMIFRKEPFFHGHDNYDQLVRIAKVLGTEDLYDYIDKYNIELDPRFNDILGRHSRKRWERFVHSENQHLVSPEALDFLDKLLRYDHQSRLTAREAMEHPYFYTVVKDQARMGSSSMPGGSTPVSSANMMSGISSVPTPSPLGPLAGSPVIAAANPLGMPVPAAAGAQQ
Chain of c-Abl (P00519 whole entry): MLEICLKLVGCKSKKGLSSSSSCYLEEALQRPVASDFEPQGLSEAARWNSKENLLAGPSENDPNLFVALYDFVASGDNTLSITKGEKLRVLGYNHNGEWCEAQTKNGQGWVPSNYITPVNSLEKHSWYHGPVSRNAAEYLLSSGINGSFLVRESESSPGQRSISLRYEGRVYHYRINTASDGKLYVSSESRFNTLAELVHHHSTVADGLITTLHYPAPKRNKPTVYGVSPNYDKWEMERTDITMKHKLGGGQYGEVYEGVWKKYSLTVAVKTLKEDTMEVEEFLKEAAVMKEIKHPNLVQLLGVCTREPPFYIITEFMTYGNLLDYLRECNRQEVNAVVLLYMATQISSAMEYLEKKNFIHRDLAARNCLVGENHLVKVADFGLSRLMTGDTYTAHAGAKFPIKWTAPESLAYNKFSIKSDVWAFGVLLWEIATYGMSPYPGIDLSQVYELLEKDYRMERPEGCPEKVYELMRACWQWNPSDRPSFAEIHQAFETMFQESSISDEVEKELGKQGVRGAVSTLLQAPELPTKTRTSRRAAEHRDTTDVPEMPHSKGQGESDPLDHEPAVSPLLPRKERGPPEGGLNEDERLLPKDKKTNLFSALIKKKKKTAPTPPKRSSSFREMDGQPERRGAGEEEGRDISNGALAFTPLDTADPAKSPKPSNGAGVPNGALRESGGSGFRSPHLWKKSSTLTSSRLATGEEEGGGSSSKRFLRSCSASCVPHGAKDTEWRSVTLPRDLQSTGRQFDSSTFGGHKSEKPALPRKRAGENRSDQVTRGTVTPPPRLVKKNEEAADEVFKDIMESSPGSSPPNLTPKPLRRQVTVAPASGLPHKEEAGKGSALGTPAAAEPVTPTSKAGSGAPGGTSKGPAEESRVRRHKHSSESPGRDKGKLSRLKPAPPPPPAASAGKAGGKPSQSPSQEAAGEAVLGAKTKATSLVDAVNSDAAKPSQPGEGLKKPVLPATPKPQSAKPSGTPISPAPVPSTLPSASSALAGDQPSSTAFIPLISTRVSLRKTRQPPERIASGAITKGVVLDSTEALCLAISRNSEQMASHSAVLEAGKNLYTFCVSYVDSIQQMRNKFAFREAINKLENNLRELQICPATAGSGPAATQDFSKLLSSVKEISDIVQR
Chain of GSK3β (P49841 whole entry): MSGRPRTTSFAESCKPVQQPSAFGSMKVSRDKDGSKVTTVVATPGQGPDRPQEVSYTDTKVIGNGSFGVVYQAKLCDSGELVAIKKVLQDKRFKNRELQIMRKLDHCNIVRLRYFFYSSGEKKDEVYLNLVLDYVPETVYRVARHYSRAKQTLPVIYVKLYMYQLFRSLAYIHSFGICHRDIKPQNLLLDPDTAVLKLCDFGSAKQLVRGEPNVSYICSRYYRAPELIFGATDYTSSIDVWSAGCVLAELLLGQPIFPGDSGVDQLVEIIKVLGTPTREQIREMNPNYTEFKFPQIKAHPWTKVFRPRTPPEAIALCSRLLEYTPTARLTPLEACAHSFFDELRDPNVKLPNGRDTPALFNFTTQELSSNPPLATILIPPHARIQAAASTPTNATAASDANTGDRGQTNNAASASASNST
Chain of CDK7 (P50613 whole entry, species assumed): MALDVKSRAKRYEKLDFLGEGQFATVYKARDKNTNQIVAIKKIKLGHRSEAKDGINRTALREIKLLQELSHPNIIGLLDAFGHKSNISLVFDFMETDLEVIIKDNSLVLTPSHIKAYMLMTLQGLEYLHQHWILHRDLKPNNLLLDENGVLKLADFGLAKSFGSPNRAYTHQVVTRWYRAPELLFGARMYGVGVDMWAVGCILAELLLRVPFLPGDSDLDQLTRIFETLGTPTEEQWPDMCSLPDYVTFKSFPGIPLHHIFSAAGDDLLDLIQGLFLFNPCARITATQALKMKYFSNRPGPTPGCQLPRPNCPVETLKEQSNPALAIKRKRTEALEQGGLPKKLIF
Chain of CDK7 (P51946 whole entry partner, species assumed): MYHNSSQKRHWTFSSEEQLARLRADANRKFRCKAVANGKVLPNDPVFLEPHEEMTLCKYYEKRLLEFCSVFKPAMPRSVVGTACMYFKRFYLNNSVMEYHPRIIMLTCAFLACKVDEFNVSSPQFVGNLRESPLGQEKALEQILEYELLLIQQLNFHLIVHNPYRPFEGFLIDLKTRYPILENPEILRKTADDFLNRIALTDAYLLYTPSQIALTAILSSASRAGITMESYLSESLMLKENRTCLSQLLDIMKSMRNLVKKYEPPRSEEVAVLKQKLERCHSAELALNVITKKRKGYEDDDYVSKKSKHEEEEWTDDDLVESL
Chain of CDK7/cyclin H (P50613 whole entry): as the sequence (P50613 whole entry, species assumed) above
Chain of CDK7/cyclin H (P51946 whole entry partner): as the sequence (P51946 whole entry partner, species assumed) above
Chain of CHK1 (O14757 whole entry): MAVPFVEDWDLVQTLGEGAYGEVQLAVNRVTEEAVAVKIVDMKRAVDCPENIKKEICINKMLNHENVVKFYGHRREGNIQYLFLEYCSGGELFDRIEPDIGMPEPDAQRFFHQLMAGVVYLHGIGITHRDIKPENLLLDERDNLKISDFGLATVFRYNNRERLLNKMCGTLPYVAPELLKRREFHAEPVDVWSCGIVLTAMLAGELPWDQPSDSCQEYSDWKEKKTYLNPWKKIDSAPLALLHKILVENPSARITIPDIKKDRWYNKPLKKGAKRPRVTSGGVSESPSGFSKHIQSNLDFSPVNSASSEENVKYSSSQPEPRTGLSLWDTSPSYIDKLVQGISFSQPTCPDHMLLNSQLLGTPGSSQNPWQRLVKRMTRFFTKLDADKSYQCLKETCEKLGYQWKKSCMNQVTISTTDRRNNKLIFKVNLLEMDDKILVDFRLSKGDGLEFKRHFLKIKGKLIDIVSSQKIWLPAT
Chain of PKBα (P31749 whole entry): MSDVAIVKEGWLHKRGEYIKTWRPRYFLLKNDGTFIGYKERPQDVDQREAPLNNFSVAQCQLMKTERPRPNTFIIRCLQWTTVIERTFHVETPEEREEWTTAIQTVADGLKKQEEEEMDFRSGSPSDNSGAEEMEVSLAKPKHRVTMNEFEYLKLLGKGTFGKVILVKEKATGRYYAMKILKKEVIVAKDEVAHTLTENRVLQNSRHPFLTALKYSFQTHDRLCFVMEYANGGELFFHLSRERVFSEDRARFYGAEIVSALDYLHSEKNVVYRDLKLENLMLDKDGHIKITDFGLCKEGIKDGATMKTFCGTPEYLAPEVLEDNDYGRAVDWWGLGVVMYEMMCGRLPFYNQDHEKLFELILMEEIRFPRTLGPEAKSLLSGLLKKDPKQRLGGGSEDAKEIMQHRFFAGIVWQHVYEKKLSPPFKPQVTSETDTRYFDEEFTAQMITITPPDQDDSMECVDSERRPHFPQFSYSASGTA

Nc1n[nH]c(N)c1N=Nc1ccc(O)cc1 [Compound 12b, 3,5-diamino-4-(4-hydroxy)phenylazo-pyrazole]
% of kinase activity (CDK7/cyclin H): 71% | % of kinase activity (PKBα): 105% | % of kinase activity (CK2): 65% | % of kinase activity (c-Abl): 84% | IC50 (CDK1/cyclin B): 2.1 µM | % of kinase activity (CDK1/cyclin B; [9]): 19% | % of kinase activity (MAPK1 [1]): 99% | IC50 (p70S6K): ~10 µM | % of kinase activity (p70S6K; [9]): 51% | % of kinase activity (GSK3β): 81% | IC50 (CDK2/cyclin E): 3.5 µM | % of kinase activity (CDK2/cyclin E; [9]): 31% | % of kinase activity (SAPK2α): 82% | PARP cleavage fragment (western blot) [2]: revealed a 89 kDa peptide | % of kinase activity (CHK1): 89% | % of kinase activity (PKA): 67% | viability at 72 h, 100 µM [3, 10]: 8.3% | viability at 72 h, 100 µM [3, 11]: 22% | viability at 72 h, 100 µM [3, 12]: 23% | viability at 72 h, 100 µM [3, 13]: 20% | cell death by western blotting and flow cytometry (K562 cell line; 72 h treatment): significant cell death | cell cycle distribution (K562 cell line; K562, 50 μM, after 12 h incubation): accumulation of cell population in G1 | sub-G1 peak / fragmented DNA (K562 cell line; K562, longer incubation period (48-72 h)): sub-G1 peak of cell fragments, containing fragmented DNA

Nc1n[nH]c(N)c1N=Nc1ccccc1CO [Compound 16b, 3,5-diamino-4-(2-hydroxymethyl)phenylazo-pyrazole]
IC50 (CDK1/cyclin B): 21 µM | IC50 (CDK2/cyclin E): 17 µM | IC50 ([4]; Homo sapiens, K562): > 100 µM | IC50 ([5]; Homo sapiens, MCF7): > 100 µM | IC50 ([6]; Homo sapiens): > 100 µM | viability at 72 h, 100 µM [3, 10]: 84% | viability at 72 h, 100 µM [3, 11]: 87% | viability at 72 h, 100 µM [3, 12]: 86% | viability at 72 h, 100 µM [3, 13]: 51% | IC50 ([7]; Homo sapiens, G-361): > 100 µM

NCc1ccc(/N=N/c2c(N)n[nH]c2N)cc1 [Compound 17b, 3,5-diamino-4-(4-aminomethyl)phenylazo-pyrazole]
CDK inhibitory activity (in words) (CDK1 and CDK2): low activity (almost zero) | IC50 (CDK1/cyclin B): > 100 µM | IC50 (CDK2/cyclin E): > 100 µM

Nc1n[nH]c(N)c1N=Nc1cccc2c1CCCC2 [Compound 30b]
CDK inhibitory activity (in words) (CDK1 and CDK2): only a weak impact on CDK activity | IC50 (CDK1/cyclin B): > 100 µM | IC50 (CDK2/cyclin E): > 100 µM | IC50 [4]: 55 ± 1 µM | % of viable cells K562 ([4]; at 100 μM): (26 ± 7) % | IC50 [5]: 81 ± 9 µM | % of viable cells MCF7 ([5]; at 100 μM): (39 ± 10%) | IC50 [6]: 92 ± 5 µM | % of viable cells HOS ([6]; at 100 μM): (32 ± 6%) | IC50 [7]: 77 ± 4 µM | % of viable cells G361 ([7]; at 100 μM): (27 ± 5) %

Cn1cnc2c(NCc3ccccc3)nc(NCCO)nc21 [olomoucine, reference compound]
IC50 at 72 h (in vitro): > 100 µM

CC[C@H](CO)Nc1nc(NCc2ccccc2)c2ncn(C(C)C)c2n1 [roscovitine]
effect on MAPK1 (in words) (MAPK1 [8]): strong effect | effect on CDK7 (in words) (CDK7): strong effect
